From US12729225B2, “Non-canonical SWI/SNF complex and uses thereof” (Dana-Farber Cancer Institute, Inc., priority 2018, dated 2026)
Values joined by “and” are separate entries in the source; they are usually repeats but may differ in a detail not shown here. Equal entries are not always repeated. “Also recorded” adds a separate entry of the source.

Key:
[1] = test system: CRL7250 human fibroblast cells; experiment: RNA-seq of SS18-SSX-mediated gene activation in CRL7250 fibroblasts; format: cell-based; conditions: CRL7250 fibroblasts expressing V5-SS18-SSX1, with dBRD9
Method: (§1) RNA was collected from 2 million cells per condition, in biological duplicate, using the RNeasy® Mini Kit (QIAGEN) according to manufacturer's protocol.
(§2) Library preparation and sequencing of ChIP DNA and RNA was performed by the Molecular Biology Core Facilities at the Dana-Farber Cancer Institute (75 bp single end on Illuminia Nextseq 500).
(§3) RNA-seq data reads were mapped using default parameters to hg19 using STAR (Dobin, et al. (2013) Bioinformatics 29:15-21) version 2.5.2a.
(§4) RPKM values were calculated using GFOLD version 1.1.4 (Feng et al. (2012) Bioinformatics 28:2782-2788). Unless otherwise noted, log 2 fold change and Bonferri-corrected p values were generated using DESEQ2 v1.16.1, with reads mapped using RSUBREAD (Liao et al. (2013) Nucleic Acids Res. 41:e108) v1.26.1. […] All RNA-seq experiments were performed in biological replicate. Quality control metrics are available in Table 7.
(§5) The input for Gene Set Enrichment Analysis (GSEA) (Subramanian et al. (2005) Proc. Nat. Acad. Sci. U.S.A 102:15545-15550) was created by calculating the log 2 fold change between the mean RPKM of the replicates in each condition+1. […] GSEA Preranked was run over these files with default settings.

[2] = test system: TTC1240 malignant rhabdoid tumor cells; experiment: Proliferation curves (cell counts) in TTC1240 cells; format: cell-based, human; conditions: for Proliferation curve data for FIG. 6H (TTC1240): three replicates
Method: (§6) HEK-293T, G401, TTC1240, ESX, IMR-90, BJ Fibroblast, CRL7250, and NCIH-1437 cells were grown in DMEM (Gibco®) supplemented with 10% FBS, 1% GlutaMAX™ (Gibco®), and 1% penicillin-streptomycin (Gibco®). ES-2 cells were grown in McCoy's 5A (Gibco®) supplemented with 10% FBS, 1% GlutaMA™ (Gibco®), and 1% penicillin-streptomycin (Gibco®). EoL-1 and MOLM-13 were grown in RPMI (Gibco) supplemented with 10% FBS, 1% GlutaMAX™ (Gibco®), and 1% penicillin-streptomycin (Gibco®). RD were cultured in DMEM (Gibco®) supplemented with 10% FBS. HCT116 were grown in McCoy's 5A (Gibco®) supplemented with 10% FBS. Calu-6 were grown in EMEM (ATCC® 30-2003) supplemented with 10% FBS. SYO-1 was grown in DMEM without sodium pyruvate (Gibco®) supplemented with 10% FBS, 1% GlutaMAX™ (Gibco®), and 1% penicillin-streptomycin (Gibco®).
(§7) 25,000-40,000 cells were plated per well of 12 well plates, or 50,000-60,000 per 10 cm plate, depending on cell line. Cell counts were performed in biological triplicate using a Vi-CELL™ XR Cell Counter (Beckman Coulter) on days indicated.

G401 MRT cells = experiment: Proliferation curves (cell counts) in G401 cells; format: cell-based, human; conditions: for Proliferation curve data for FIG. 5K (G401): three replicates
Method: as §6, §7

SMARCA4 [3] = experiment: ChIP-seq SMARCA4 occupancy in MOLM-13 cells; format: cell-based, human; conditions: MOLM13 (BAF-intact), dBRD9
Method: (§8) Cells were fixed in 1% formaldehyde (Sigma Aldrich, F8775) for 10 min at 37° C. and quenched with 125 mM glycine for 5 min at 37° C. Cells were subsequently washed with cold PBS and stored at −80° C. until use. 10M cells per ChTP were used for EoL-1, MOLM-13, and Jurkat cell lines, and 5M cells per ChIP were used for SYO-1 and TTC1240 cell lines. Nuclei were extracted and chromatin was sonicated using the adaptive focused acoustics technology with a Covaris sonicator. Sonicated chromatin was used in immunoprecipitation reactions with indicated antibodies (Table 5) overnight followed by capture using Protein G Dynabeads (Thermo Fisher). For ChIP-seq using spike-in chromatin, 15 ng of spike-in Drosophila chromatin (Active Motif, cat #530830) was added to each sample with 2 μg of spike-in antibody (Active Motif, cat #61686). […]
(§9) For alignment of ChIP-seq data, Bowtie2, version 2.1.0 (Langmead & Salzberg (2012) Nat. Methods 9:357-359) was used to map reads to the hg19 human reference genome, using the parameter −k l.
MACS2 (Zhang et al. (2008) Genome Biol. 9:R137) version 2.1.0 was used to call peaks against input with a cutoff of q=0.001. […] For TTC1240 SMARCA4 tracks shown, the bedGraph file values were multiplied by the spike-in normalization ratios calculated as described above.

SMARCA4 [4] = experiment: ChIP-seq SMARCA4 occupancy in TTC1240 cells (spike-in normalized, DiffBind); format: cell-based, human; conditions: TTC1240, dBRD9 250 nM vs DMSO
Method: as §8, with “Fisher).” for “Fisher). For ChIP-seq using spike-in chromatin, 15 ng of spike-in Drosophila chromatin (Active Motif, cat #530830) was added to each sample with 2 μg of spike-in antibody (Active Motif, cat #61686).”
as §9
For spike-in normalization, Drosophila DNA was aligned to the dm3 genome using Bowtie2 version 2.1.0 with the parameter −k l. Duplicated reads were removed using samtools rmdup with the −b option. (SAMtools v1.3.1) As per manufacturer instructions, normalization ratios were calculated using the ratio of the total number of non-redundant mapped reads in each sample in comparison to the sample with the fewest non-redundant mapped reads. […]

MOLM-13 cells = experiment: RNA-seq gene expression in MOLM-13 cells; format: cell-based, human; conditions: MOLM-13 (BAF-intact), 6 days of dBRD9
Method: as §1, §2, §3, §4

[5] = test system: SYO-1 synovial sarcoma cells; experiment: Proliferation curves (cell counts, Vi-CELL XR) in SYO-1 cells; format: cell-based, human; conditions: for cell count: three replicates
Method: as §6
ShRNA or gene delivery vectors, psPAX2, and pMD2.g were transfected into […] cells at a ratio of 4:3:1 using PEI (Polysciences, Inc.). Media was filtered through 0.4 micron filters 72 h post transfection and lentiviral particles were concentrated at 20,000 rpm for 2.5 h at 4° C. Lentiviral particles were resuspended in 200 μl PBS and cells were transduced using 1:1000 polybrene (Santa Cruz Biotechnology, cat. sc-134220). Two days post-infection, cells were selected with 2 μg/mL puromycin or 10 μg/mL blasticidin.
as §7

[6] = test system: SYO-1 synovial sarcoma cells; experiment: RNA-seq gene expression profiling in SYO-1 cells; format: cell-based, human; conditions: SYO-1, dBRD9 (6 day)
Method: as §1, §2, §3, §4, §5

[7] = test system: TTC1240 malignant rhabdoid tumor cells; experiment: RNA-seq gene expression in TTC1240 cells; format: cell-based, human; conditions: TTC1240, 7 days of 250 nM dBRD9
Method: as §1, §2, §3, §4
Genes associated with MRT superenhancers were downloaded from Chun et al. (Chun et al. (2016) Cancer Cell 29:394-406). Differential expression files of genes between MRT and normal tissues were downloaded from Chun et al., genes that were overexpressed in MRT with Bonferroni-adjusted p-value<0.01 were considered overexpressed in MRT.

[8] = test system: ESX epithelioid sarcoma (SMARCB1-intact) cells; experiment: Proliferation curves (cell counts) in ESX cells; format: cell-based, human; conditions: dBRD9 250 nM vs DMSO
Method: as §6, §7

## COc1cc(-c2cn(C)c(=O)c3cnccc23)cc(OC)c1CN(C)CC(=O)NCCOCCOCCNc1cccc2c1C(=O)N(C1CCC(=O)NC1=O)C2=O (centres unmarked) [dBRD9, 2-((2,6-dimethoxy-4-(2-methyl-1-oxo-1,2-dihydro-2,7-naphthyridin-4-yl)benzyl)(methyl)amino)-N-(2-(2-(2-((2-(2,6-dioxopiperidin-3-yl)-1,3-dioxoisoindolin-4-yl)amino)ethoxy)ethoxy)ethyl) acetamide]
[1]
  SS18-SSX-mediated gene activation: did not attenuate
[2]; Day 1, first block
  Proliferation curve data for FIG. 6H (TTC1240): 0.01352 and 0.01738 and 0.01416
[2]; Day 1, second block
  Proliferation curve data for FIG. 6H (TTC1240): 0.05469 (2×) and 0.03282
[2]; Day 3, first block
  Proliferation curve data for FIG. 6H (TTC1240): 0.03024 and 0.04118 and 0.0296
[2]; Day 3, second block
  Proliferation curve data for FIG. 6H (TTC1240): 0.2709 and 0.2793 and 0.2619
[2]; Day 5, first block
  Proliferation curve data for FIG. 6H (TTC1240): 0.05791 and 0.06311 and 0.0534
[2]; Day 5, second block
  Proliferation curve data for FIG. 6H (TTC1240): 0.9207 and 0.9419 and 0.9374
[2]; Day 7, first block
  Proliferation curve data for FIG. 6H (TTC1240): 0.1853 and 0.2336 and 0.1628
[2]; Day 7, second block
  Proliferation curve data for FIG. 6H (TTC1240): 2.184 and 2.334 and 2.133
[2]; TTC1240 (SMARCB1-deficient MRT), dBRD9 250 nM vs DMSO
  proliferation upon dBRD9 treatment: reduced proliferation
G401 MRT cells; Day 1, first block
  Proliferation curve data for FIG. 5K (G401): 0.04568 and 0.02188 and 0.02252
G401 MRT cells; Day 1, second block
  Proliferation curve data for FIG. 5K (G401): 0.1114 and 0.1126 and 0.1094
G401 MRT cells; Day 3, first block
  Proliferation curve data for FIG. 5K (G401): 0.1287 (2×) and 0.1558
G401 MRT cells; Day 3, second block
  Proliferation curve data for FIG. 5K (G401): 0.48 and 0.5096 and 0.442
G401 MRT cells; Day 5, first block
  Proliferation curve data for FIG. 5K (G401): 0.453 and 0.5533 and 0.4292
G401 MRT cells; Day 5, second block
  Proliferation curve data for FIG. 5K (G401): 1.005 and 1.058 and 0.9696
G401 MRT cells; Day 7, first block
  Proliferation curve data for FIG. 5K (G401): 0.7669 and 0.9773 and 0.8281
G401 MRT cells; Day 7, second block
  Proliferation curve data for FIG. 5K (G401): 1.468 and 1.621 and 1.556
G401 MRT cells; G401 (SMARCB1-deficient MRT), dBRD9 250 nM vs DMSO
  proliferation upon dBRD9 treatment: reduced proliferation
SMARCA4 [3]
  loss in SMARCA4 occupancy (ChIP-seq): did not exhibit similar loss
SMARCA4 [4]
  SMARCA4 occupancy (ChIP-seq): significant decrease
MOLM-13 cells
  preferential downregulation of genes enriched for dependencies (CERES): did not result in preferential downregulation
[5]; Day 0, second block
  cell count: 0.05
[5]; Day 1, first block
  cell count: 0.03089 and 0.03603 and 0.03282
[5]; Day 4, first block
  cell count: 0.1506 and 0.1319 and 0.1377
[5]; Day 4, second block
  cell count: 0.171 and 0.18 and 0.216
[5]; Day 6, first block
  cell count: 0.2722 and 0.3153 and 0.2555
[5]; Day 7, second block
  cell count: 0.36 (2×) and 0.42
[5]; Day 8, first block
  cell count: 0.5521 and 0.5701 and 0.5147
[5]; Day 10, second block
  cell count: 1.17 and 1.38 and 1.14
[5]; Day 13, second block
  cell count: 2.3 and 2.21 and 2.13
[5]; SYO-1, dBRD9 500 nM (FIG. 6F) vs DMSO
  cell proliferation upon dBRD9 treatment: attenuation of cell proliferation; also recorded: proliferative attenuation
[6]
  expression of genes closest to fusion-dependent sites: did not change
[7]
  expression of JUND, VGF, ID3, HOXC9, CREB3L1: significantly downregulated
[8]
  reduced proliferation upon dBRD9 treatment: did not
